Data from US20130331261A1 (priority 2010, published 2013).

What was measured:
Assay type in all cases: cell-based
[1] = tested on: Fumonisin FB1 production by Fusarium proliferatum; assay: Inhibition of fumonisin FB1 production by Fusarium proliferatum in fumonisin-inducing liquid media (HPLC-MS/MS); details: 120 h, 5 days at 20° C., vs control without compound
Fusarium proliferatum = assay: microbe, parasite or virus in culture; details: 120 h
[2] = tested on: DON/Acetyl-DON production by Fusarium graminearum; assay: microbe, parasite or virus in culture; details: 168 h, read-out: % Inhibition of DON/AcDON at 50 μM
Fusarium graminearum = assay: microbe, parasite or virus in culture; details: 72 h, read-out: % Inhibition of fungal growth at 50 μM
[3] = tested on: Production of Aflatoxins by Aspergillus parasiticus; assay: microbe, parasite or virus in culture; details: 168 h, read-out: % Inhibition of Aflatoxin at 50 μM
Aspergillus parasiticus = assay: microbe, parasite or virus in culture; details: 168 h, read-out: % Inhibition of fungal growth at 50 μM

| Structure (SMILES) | inhibition at 50 µM [1] | inhibition at 50 µM (Fusarium proliferatum) | inhibition at 50 µM [2] | inhibition at 50 µM (Fusarium graminearum) | inhibition at 50 µM [3] | inhibition at 50 µM (Aspergillus parasiticus) |
| --- | --- | --- | --- | --- | --- | --- |
| COC(c1ccc(Cl)cc1Cl)C(C)NC(=O)c1cn(C)nc1C(F)F (stereo not drawn) [Example 1] | 100% | 67% | 100% | 54% | 100% | 100% |
| COC(c1ccc(Cl)cc1Cl)C(C)NC(=O)c1c(C)nn(C)c1F (stereo not drawn) [Example 2] | 100% | 77% | 100% | 58% | 100% | 100% |
| COC(c1ccc(Cl)cc1Cl)C(C)NC(=O)c1c(C(F)F)nn(C)c1F (stereo not drawn) [Example 3] | 100% | 86% | 100% | 41% | 100% | 100% |
